According to publication PMC6009944, “Synthesis, antitumour activities and molecular docking of thiocarboxylic acid ester-based NSAID scaffolds: COX-2 inhibition and mechanistic studies” (Journal of Enzyme Inhibition and Medicinal Chemistry, 2018):
Where two headings read alike, the source gives them in different places.

How the values were obtained:
MCF-7 = assay: MTT antitumor assay, MCF-7
Procedure: (§2) The evaluation of the antitumour activity was performed using tetrazolium salt MTT (3–(4,5-dimethyl-2-thiazolyl)-2,5-diphenyl-2H-tetrazolium bromide) assay as reported[47–50].

Caco-2 = assay: MTT antitumor assay, Caco-2; details: Homo sapiens, Caco-2, read-out: IC50 (μM) Caco-2
Procedure: as §2

HCT-116 = assay: MTT antitumor assay, HCT-116
Procedure: as §2

HepG2 = assay: MTT antitumor assay, HepG2; details: Homo sapiens, HepG2, read-out: IC50 (μM) HepG2
Procedure: as §2

HER4 = biological target: T1, HER4 (Homo sapiens, UniProt Q15303); assay: Kinase inhibition assay (Kinase-Glo Plus), HER4; assay type: biochemical; details: read-out: % inhibition of 10 μM HER4; 10 μM compound
T1 construct: purchased BPS Bioscience
T1 sequence (Q15303 26-1308): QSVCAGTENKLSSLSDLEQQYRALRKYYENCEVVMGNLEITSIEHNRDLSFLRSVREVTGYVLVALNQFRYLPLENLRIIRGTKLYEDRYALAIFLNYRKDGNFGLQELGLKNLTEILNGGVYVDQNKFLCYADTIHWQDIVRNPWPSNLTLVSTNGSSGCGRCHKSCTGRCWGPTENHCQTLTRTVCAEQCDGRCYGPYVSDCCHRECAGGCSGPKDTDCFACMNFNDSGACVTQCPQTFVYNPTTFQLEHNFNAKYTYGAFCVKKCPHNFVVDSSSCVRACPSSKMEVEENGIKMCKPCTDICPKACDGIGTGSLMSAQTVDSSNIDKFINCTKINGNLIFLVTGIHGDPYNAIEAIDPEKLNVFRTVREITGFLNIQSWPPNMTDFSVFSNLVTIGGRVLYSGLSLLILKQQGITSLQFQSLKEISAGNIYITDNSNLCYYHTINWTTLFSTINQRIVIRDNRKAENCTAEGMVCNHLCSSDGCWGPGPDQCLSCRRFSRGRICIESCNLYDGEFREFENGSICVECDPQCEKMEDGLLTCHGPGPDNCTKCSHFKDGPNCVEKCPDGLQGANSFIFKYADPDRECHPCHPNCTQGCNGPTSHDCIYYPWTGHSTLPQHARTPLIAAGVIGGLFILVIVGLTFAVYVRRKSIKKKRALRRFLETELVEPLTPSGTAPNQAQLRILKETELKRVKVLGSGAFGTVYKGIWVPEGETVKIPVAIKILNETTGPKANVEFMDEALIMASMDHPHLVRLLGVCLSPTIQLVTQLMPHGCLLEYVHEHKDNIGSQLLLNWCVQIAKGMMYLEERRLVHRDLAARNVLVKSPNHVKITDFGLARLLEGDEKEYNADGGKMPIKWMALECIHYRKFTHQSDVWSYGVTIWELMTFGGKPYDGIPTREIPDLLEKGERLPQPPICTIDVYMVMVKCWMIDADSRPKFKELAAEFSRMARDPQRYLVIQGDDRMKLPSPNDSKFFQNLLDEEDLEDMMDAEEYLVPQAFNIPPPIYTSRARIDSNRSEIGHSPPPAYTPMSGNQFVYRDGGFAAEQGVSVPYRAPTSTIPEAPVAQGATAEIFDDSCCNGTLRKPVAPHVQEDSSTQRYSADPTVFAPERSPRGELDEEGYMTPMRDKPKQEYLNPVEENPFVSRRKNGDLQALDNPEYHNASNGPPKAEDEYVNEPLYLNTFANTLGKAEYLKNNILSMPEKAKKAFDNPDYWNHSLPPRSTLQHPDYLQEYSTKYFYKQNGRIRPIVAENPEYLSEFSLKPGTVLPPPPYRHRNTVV
Procedure: (§1) Luminescence signal was measured using a BioTek Synergy 2 microplate reader.

COX-2 = biological target: T2, COX-2 (Ovis aries, UniProt P79208); assay: In vitro COX-2 enzyme inhibition assay (colorimetric kit); details: for SI, selectivity index (COX-1 IC50/COX-2 IC50): COX-2 selectivity over COX-1
T2 sequence (P79208 17-603): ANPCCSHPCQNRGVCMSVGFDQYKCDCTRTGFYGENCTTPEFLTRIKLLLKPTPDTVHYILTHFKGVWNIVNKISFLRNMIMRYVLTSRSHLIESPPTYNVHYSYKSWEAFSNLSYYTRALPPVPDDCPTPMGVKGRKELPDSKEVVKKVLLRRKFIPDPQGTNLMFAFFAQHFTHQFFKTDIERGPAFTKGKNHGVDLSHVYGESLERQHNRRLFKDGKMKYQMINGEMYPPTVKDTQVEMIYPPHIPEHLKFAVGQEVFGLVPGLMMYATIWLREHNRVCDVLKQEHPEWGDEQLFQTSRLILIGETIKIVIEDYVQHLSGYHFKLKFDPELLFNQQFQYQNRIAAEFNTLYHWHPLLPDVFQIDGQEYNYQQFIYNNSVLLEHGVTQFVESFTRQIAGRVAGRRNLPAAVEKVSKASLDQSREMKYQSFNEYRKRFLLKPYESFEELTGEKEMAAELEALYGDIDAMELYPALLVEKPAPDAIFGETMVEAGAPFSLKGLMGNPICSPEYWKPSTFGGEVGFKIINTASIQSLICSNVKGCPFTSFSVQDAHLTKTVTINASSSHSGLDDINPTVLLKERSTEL
Procedure: (§3) IC50 (represented in μM) (The half-maximal inhibitor concentration) values were determined[56–59], and the SI values were calculated[51]^,[52]^,[55] as IC50 (COX-1)/IC50 (COX-2).

HER2 = biological target: T3, HER2 (Homo sapiens, UniProt P04626); assay: Kinase inhibition assay (Kinase-Glo Plus), HER2; assay type: biochemical; details: read-out: % inhibition of 10 μM HER2; 10 μM compound
T3 construct: purchased BPS Bioscience
T3 sequence (P04626 23-1255): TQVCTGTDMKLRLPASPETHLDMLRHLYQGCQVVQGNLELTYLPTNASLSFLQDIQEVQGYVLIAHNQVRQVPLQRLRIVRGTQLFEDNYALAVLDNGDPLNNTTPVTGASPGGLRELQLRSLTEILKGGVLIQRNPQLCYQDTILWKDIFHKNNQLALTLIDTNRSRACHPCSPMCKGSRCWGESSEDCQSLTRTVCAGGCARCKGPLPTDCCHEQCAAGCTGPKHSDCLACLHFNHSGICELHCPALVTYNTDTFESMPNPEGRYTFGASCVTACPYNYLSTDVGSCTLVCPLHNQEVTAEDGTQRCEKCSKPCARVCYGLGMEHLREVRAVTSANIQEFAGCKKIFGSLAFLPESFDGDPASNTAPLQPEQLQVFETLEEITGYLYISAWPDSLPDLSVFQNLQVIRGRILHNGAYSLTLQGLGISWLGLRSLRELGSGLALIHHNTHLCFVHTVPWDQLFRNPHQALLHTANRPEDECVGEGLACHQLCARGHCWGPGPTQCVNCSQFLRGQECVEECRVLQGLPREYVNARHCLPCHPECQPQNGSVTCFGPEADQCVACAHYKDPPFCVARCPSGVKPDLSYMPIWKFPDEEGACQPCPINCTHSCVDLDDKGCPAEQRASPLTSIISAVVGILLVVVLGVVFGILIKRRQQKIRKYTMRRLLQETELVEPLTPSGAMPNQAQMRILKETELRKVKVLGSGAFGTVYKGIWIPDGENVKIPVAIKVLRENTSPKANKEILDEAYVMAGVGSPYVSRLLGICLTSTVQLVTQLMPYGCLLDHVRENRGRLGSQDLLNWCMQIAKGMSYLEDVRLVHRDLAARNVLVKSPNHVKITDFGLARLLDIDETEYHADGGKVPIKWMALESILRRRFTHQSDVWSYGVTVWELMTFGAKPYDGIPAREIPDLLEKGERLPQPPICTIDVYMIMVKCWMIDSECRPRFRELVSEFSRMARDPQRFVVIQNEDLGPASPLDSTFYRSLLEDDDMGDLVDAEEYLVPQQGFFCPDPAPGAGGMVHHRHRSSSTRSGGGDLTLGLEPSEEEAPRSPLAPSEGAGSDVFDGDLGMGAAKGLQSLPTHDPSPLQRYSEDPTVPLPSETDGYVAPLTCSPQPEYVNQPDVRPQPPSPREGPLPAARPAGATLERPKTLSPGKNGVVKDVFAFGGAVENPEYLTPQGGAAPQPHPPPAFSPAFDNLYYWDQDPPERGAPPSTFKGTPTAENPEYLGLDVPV
Procedure: as §1

COX-1 = biological target: T4, COX-1 (Ovis aries, UniProt P05979); assay: In vitro COX-1 enzyme inhibition assay (colorimetric kit)
T4 sequence (P05979 25-600): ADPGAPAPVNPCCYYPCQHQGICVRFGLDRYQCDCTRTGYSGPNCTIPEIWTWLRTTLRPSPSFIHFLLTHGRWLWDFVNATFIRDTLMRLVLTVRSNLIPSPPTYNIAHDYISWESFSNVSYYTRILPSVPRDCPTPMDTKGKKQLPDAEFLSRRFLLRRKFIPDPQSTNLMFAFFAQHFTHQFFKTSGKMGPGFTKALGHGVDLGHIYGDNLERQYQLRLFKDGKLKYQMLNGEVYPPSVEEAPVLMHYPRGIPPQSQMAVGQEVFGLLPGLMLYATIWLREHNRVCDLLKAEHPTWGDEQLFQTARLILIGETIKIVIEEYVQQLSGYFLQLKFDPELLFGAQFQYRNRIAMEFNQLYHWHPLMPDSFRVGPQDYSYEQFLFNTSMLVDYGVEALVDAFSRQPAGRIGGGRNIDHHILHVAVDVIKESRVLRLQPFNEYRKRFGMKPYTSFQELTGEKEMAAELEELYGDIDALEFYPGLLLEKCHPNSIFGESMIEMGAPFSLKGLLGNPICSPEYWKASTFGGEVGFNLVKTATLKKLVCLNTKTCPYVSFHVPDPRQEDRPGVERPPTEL
Procedure: as §3

EGFR = biological target: T5, EGFR (Homo sapiens, UniProt P00533); assay: Kinase inhibition assay (Kinase-Glo Plus), EGFR; assay type: biochemical; details: read-out: % inhibition of 10 μM EGFR; 10 μM compound
T5 construct: purchased BPS Bioscience
T5 sequence (P00533 25-1210): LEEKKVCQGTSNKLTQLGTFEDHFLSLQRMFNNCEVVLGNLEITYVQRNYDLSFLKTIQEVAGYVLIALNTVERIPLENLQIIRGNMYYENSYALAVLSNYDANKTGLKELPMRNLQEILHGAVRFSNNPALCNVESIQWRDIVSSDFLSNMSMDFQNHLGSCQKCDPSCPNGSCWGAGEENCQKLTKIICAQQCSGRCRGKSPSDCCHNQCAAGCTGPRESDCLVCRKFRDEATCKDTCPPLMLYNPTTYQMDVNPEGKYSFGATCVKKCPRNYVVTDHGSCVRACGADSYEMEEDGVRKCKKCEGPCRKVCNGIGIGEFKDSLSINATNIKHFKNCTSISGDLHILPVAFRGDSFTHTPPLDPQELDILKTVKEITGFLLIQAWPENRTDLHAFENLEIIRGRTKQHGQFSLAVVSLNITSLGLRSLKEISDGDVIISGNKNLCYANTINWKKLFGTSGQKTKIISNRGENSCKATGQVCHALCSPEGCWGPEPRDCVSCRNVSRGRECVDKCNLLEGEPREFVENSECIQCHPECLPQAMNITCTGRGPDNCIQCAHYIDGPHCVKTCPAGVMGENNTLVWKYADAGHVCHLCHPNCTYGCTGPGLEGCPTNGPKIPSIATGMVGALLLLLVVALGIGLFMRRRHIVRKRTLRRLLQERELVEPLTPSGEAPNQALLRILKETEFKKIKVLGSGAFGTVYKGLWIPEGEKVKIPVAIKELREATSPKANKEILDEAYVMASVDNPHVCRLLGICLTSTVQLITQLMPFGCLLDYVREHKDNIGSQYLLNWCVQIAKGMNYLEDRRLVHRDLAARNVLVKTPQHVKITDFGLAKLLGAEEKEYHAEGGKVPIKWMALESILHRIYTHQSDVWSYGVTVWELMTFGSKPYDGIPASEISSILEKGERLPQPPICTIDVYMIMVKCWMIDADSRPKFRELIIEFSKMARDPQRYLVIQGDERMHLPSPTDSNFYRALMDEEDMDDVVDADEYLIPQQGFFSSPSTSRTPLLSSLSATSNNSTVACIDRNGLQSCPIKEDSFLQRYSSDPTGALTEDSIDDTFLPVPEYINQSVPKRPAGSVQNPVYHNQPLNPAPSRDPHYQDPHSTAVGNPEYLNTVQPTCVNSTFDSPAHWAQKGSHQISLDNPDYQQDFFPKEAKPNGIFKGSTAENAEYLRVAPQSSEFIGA
Procedure: as §1

cSrc = biological target: T6, cSrc (Homo sapiens, UniProt P12931); assay: Kinase inhibition assay (Kinase-Glo Plus), cSrc; assay type: biochemical; details: for inhibition at 10 µM: read-out: % inhibition, 10 μM compound
T6 construct: purchased BPS Bioscience
T6 sequence (P12931 whole entry): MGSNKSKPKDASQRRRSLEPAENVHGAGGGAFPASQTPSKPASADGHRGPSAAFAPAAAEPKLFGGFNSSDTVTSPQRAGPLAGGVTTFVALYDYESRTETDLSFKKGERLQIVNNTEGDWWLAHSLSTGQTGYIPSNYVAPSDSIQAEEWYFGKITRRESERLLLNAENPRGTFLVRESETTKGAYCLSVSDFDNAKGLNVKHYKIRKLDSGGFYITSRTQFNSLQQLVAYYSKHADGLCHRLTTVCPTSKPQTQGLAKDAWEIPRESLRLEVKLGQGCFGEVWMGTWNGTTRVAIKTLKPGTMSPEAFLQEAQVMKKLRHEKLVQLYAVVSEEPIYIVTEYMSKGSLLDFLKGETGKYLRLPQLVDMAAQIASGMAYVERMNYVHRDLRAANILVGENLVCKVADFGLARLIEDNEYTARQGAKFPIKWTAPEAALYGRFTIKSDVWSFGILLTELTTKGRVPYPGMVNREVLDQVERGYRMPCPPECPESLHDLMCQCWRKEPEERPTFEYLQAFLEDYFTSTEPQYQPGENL
Procedure: as §1

[1] = read-out: IC50 (μM) MCF-7, human breast adenocarcinoma cell line, MTT, mean ± SD, n = 3
[2] = Homo sapiens, HCT-116, read-out: IC50 (μM) HCT-116, human colon cancer cell line, MTT, mean ± SD, n = 3
[3] = Homo sapiens, MCF7, read-out: IC50 (μM) MCF-7, human breast adenocarcinoma cell line, MTT, mean ± SD, n = 3

Row | SMILES | IC50 (MCF-7; [1]) | melting point | IC50 (Caco-2) | IC50 (HCT-116; [2]) | IC50 (HepG2) | IC50 (HCT-116; read-out: IC50 (μM) HCT-116, human colon cancer cell line, MTT, mean ± SD, n = 3) | IC50 (MCF-7; [3]) | inhibition at 10 µM (HER4) | IC50 (COX-2) | SI, selectivity index (COX-1 IC50/COX-2 IC50) (COX-2) | inhibition at 10 µM (HER2) | IC50 (COX-1) | inhibition at 10 µM (EGFR) | inhibition at 10 µM (cSrc) | inhibition at 1 µM (cSrc; read-out: % inhibition cSrc)
1 | O=C(Cc1ccccc1Nc1c(Cl)cccc1Cl)SC1CCCCC1 [6b, S-cyclohexyl-2–(2-((2,6-dichlorophenyl)amino)phenyl)ethanethioate] | 95.3 ± 4.96 µM | 88 to 90 °C | > 100 µM | 91.2 ± 4.96 µM | > 100 µM |  |  |  |  |  |  |  |  |  | 
2 | CC(C(=O)Sc1ccccc1)c1cccc(C(=O)c2ccccc2)c1 (stereo not drawn) [2a, S-phenyl-2–(3-benzoylphenyl)propanethioate] | 48.1 ± 3.15 µM | 96 to 98 °C | 72.2 ± 4.06 µM |  | 59.8 ± 3.55 µM | 61.3 ± 3.97 µM |  |  |  |  |  |  |  |  | 
3 | COc1ccc2c(c1)c(CC(=O)SC1CCCCC1)c(C)n2C(=O)c1ccc(Cl)cc1 [7b, S-cyclohexyl-2–(1-(4-chlorobenzoyl)-5-methoxy-2-methyl-1H-indol-3-yl)ethanethioate] |  | 97 to 98 °C | 29.1 ± 2.45 µM | 34 ± 2.25 µM | 14.9 ± 1.38 µM |  | 17.1 ± 1.4 µM | 3% | 490 ± 44 nM | >102.0 | 0% | > 50 µM | 1% | 3% | 
4 | CN[C@@H]1C[C@H]2O[C@@](C)([C@@H]1OC)n1c3ccccc3c3c4c(c5c6ccccc6n2c5c31)C(=O)NC4 [Staurosporine, reference compound] |  |  |  |  |  |  |  |  |  |  |  |  |  |  | 100%
5 | CC(C)Cc1ccc(C(C)C(=O)SC2CCCCC2)cc1 (stereo not drawn) [1b, S-cyclohexyl-2–(4-isobutylphenyl)propanethioate] |  |  | > 100 µM | 97.6 ± 5.12 µM | > 100 µM |  | > 100 µM |  |  |  |  |  |  |  | 
6 | COc1ccc2cc(C(C)C(=O)Sc3ccccc3)ccc2c1 [5a, S-phenyl-(S)-2–(6-methoxynaphthalen-2-yl)propanethioate] |  | 115 to 117 °C | 63.8 ± 3.58 µM | 51.2 ± 3.71 µM | 36.8 ± 2.7 µM |  | 42.6 ± 2.67 µM |  |  |  |  |  |  |  | 
7 | COc1ccc2c(c1)c(CC(=O)Sc1ccccc1)c(C)n2C(=O)c1ccc(Cl)cc1 [7a, S-phenyl-2–(1-(4-chlorobenzoyl)-5-methoxy-2-methyl-1H-indol-3-yl)ethanethioate] |  | 133 to 135 °C | 18.1 ± 1.73 µM | 14.6 ± 1.24 µM | 7.86 ± 0.39 µM |  | 9.65 ± 0.96 µM | 4% | 220 ± 19 nM | >227.3 | 0% | > 50 µM | 0% | 1% | 
8 | CC(C(=O)SC1CCCCC1)c1cccc(C(=O)c2ccccc2)c1 (stereo not drawn) [2b, S-cyclohexyl-2–(3-benzoylphenyl)propanethioate] |  | 69 to 70 °C | 21.7 ± 1.9 µM | 18.7 ± 1.5 µM | 9.36 ± 0.79 µM |  | 11.9 ± 1.13 µM | 5% | 660 ± 52 nM | >75.8 | 1% | > 50 µM | 0% | 4% | 
9 | CC1=C(CC(=O)SC2CCCCC2)c2cc(F)ccc2C1=Cc1ccc([S+](C)[O-])cc1 (stereo not drawn) [8b, S-cyclohexyl-2–(5-fluoro-2-methyl-1–(4-(methylsulfinyl)benzylidene)-1H-inden-3-yl)ethanethioate] |  | 121 to 122 °C | 43.8 ± 2.96 µM | 46.7 ± 2.93 µM | 22.3 ± 1.96 µM |  | 34.1 ± 2.07 µM |  | 600 ± 55 nM | >83.3 |  | > 50 µM |  |  | 
10 | COc1ccc2cc(C(C)C(=O)SC3CCCCC3)ccc2c1 [5b, S-cyclohexyl-(S)-2–(6-methoxynaphthalen-2-yl)propanethioate] |  | 105 to 106 °C | 35.6 ± 2.62 µM | 39.5 ± 2.61 µM | 19.7 ± 1.57 µM |  | 28.9 ± 1.58 µM |  |  |  |  |  |  |  | 
